# Experiment: solvent given as SMILES
compound,measurement,setting,value
C(=C\c1ccc(/C=C/c2ccc(N(c3ccccc3)c3ccccc3)cc2)c2nsnc12)/c1ccc(N(c2ccccc2)c2ccccc2)cc1,fluorescence lifetime,in C1CCOC1,4.53 ns
same,fluorescence lifetime,in CCOC(C)=O,4.74 ns
same,fluorescence lifetime,in CN(C)C=O,2.75 ns
same,fluorescence lifetime,in Cc1ccccc1,4.29 ns
same,fluorescence lifetime,in ClC(Cl)Cl,4.21 ns
same,fluorescence lifetime,in ClCCl,4.1 ns
COc1ccc2c(c1)sc1[n+]2[B-](F)(F)OC(c2ccc(N(C)C)cc2)=N1,fluorescence lifetime,in Cc1ccccc1,1.59 ns
CC1(C)c2ccccc2N(c2ccc(C(=C(C#N)C#N)c3ccc(N4c5ccccc5C(C)(C)c5ccccc54)cc3)cc2)c2ccccc21,fluorescence lifetime,in Cc1ccccc1,3.1 ns
CCCCCCOc1ccc(N(c2ccc(OCCCCCC)cc2)c2ccc(-c3sc(-c4ccc(N(c5ccc(OCCCCCC)cc5)c5ccc(OCCCCCC)cc5)cc4)c4nc(CC)c(CC)nc34)cc2)cc1,fluorescence lifetime,in CN(C)C=O,0.92 ns
same,fluorescence lifetime,in ClC(Cl)Cl,1.09 ns
c1ccc2nc3cccc(-c4ccc(-n5c6ccccc6c6ccccc65)cc4)c3cc2c1,fluorescence lifetime,in CC#N,10.6 ns
same,fluorescence lifetime,in CCCCCC,0.2 ns
same,fluorescence lifetime,in CCOCC,0.2 ns
same,fluorescence lifetime,in ClCCl,6.68 ns
COc1ccc(C2=Cc3ccccc3P2(=O)c2ccccc2)cc1 (configuration not stated),fluorescence lifetime,in ClCCl,6.4 ns
Oc1ccc2ccc(C3(O)C4CC5CC(C4)CC3C5)cc2c1 (configuration not stated),fluorescence lifetime,in CC#N,7.78 ns
CC(C)(C)NC(=O)c1ccc2ccc3cccc4c3c2c1c1c2ccccc2c2ccccc2c41,fluorescence lifetime,in ClCCl,11.9 ns
N#Cc1c(-n2c3ccccc3c3ccccc32)c(C#N)c(-n2c3ccccc3c3ccccc32)c(-n2c3ccccc3c3ccccc32)c1-n1c2ccccc2c2ccccc21,fluorescence lifetime,in Cc1ccccc1,17.8 ns
O=C1NC(=O)c2c1c1c3ccccc3[nH]c1c1[nH]c3ccccc3c21,fluorescence lifetime,in C1CCOC1,8.6 ns
same,fluorescence lifetime,in CC#N,10 ns
same,fluorescence lifetime,in CC(C)OC(C)C,7.3 ns
same,fluorescence lifetime,in CCCCOCCCC,8 ns
same,fluorescence lifetime,in CCO,7.7 ns
same,fluorescence lifetime,in CCOC(C)=O,8.6 ns
same,fluorescence lifetime,in CN(C)C=O,13 ns
same,fluorescence lifetime,in ClCCl,7.1 ns
CCN(CC)c1ccc2cc(-c3nc4c5ccccc5c5ccccc5c4n3-c3ccc(C(C)(C)C)cc3)c(=O)oc2c1,fluorescence lifetime,in ClCCl,12.6 ns
Cc1cc(C(F)(F)F)nc2c1ccc1nc(-c3ccc(Cl)cc3)cn12,fluorescence lifetime,in CC#N,8.1 ns
same,fluorescence lifetime,in CCCCOC(C)=O,6.83 ns
same,fluorescence lifetime,in CCOC(C)=O,6.72 ns
same,fluorescence lifetime,in CO,7.89 ns
same,fluorescence lifetime,in c1ccccc1,6.26 ns
CCCCCCCCCCCCCCCCOc1cc(C#Cc2ccc3ccccc3c2)c(OCCCCCCCCCCCCCCCC)cc1C#Cc1ccc(C=C(C#N)C#N)cc1,fluorescence lifetime,in Brc1ccccc1,2.82 ns
same,fluorescence lifetime,in C1CCCCC1,1.92 ns
same,fluorescence lifetime,in C1CCOC1,0.98 ns
same,fluorescence lifetime,in C1COCCO1,3.1 ns
same,fluorescence lifetime,in CCCCCC,1.97 ns
same,fluorescence lifetime,in CCCCCCCCO,0.62 ns
same,fluorescence lifetime,in CCCCOCCCC,2.73 ns
same,fluorescence lifetime,in CCOC(C)=O,1.05 ns
same,fluorescence lifetime,in CCOCC,3.33 ns
same,fluorescence lifetime,in Cc1ccccc1,2.53 ns
same,fluorescence lifetime,in ClC(Cl)(Cl)Cl,1.94 ns
same,fluorescence lifetime,in ClC(Cl)Cl,2.26 ns
same,fluorescence lifetime,in ClCCl,0.63 ns
CC(=O)Nc1ccc2c3cccc4cccc(c5cccc1c52)c43,fluorescence lifetime,in CCOC(C)=O,3.8 ns
same,fluorescence lifetime,in CS(C)=O,4.5 ns
N#C[Se]CCCCCOc1ccc2ccc(=O)oc2c1,fluorescence lifetime,in C1CCCCC1,0.16 ns
same,fluorescence lifetime,in C1CCOC1,1.17 ns
same,fluorescence lifetime,in C1COCCO1,0.17 ns
same,fluorescence lifetime,in CC#N,0.56 ns
same,fluorescence lifetime,in CCCCCCC,0.16 ns
same,fluorescence lifetime,in CCO,0.43 ns
same,fluorescence lifetime,in CN(C)C=O,1.02 ns
same,fluorescence lifetime,in CO,0.44 ns
same,fluorescence lifetime,in O,1.75 ns
same,fluorescence lifetime,in OCCO,1.46 ns
CC(=O)c1ccc(-c2ccc3c(c2)C(=O)c2cc(-c4ccc(C(C)=O)cc4)ccc2-3)cc1,fluorescence lifetime,in C1CCOC1,1.2 ns
CCCCc1ccc2ccc3c(CCCC)ccc4ccc1c2c43,fluorescence lifetime,in CCCCCC,57.8 ns
same,fluorescence lifetime,in CO,70.6 ns
same,fluorescence lifetime,in ClCCl,42 ns
CN(C)c1ccc(/C=C/C=C2\CC/C(=C\C=C\c3ccc(N(C)C)cc3)C2=O)cc1,fluorescence lifetime,in C1CCCCC1,0.48 ns
same,fluorescence lifetime,in CC#N,0.49 ns
same,fluorescence lifetime,in CC(C)=O,0.8 ns
same,fluorescence lifetime,in CC(C)O,0.56 ns
same,fluorescence lifetime,in CCCCCC,0.86 ns
same,fluorescence lifetime,in CCCCO,0.37 ns
same,fluorescence lifetime,in CCCO,0.19 ns
same,fluorescence lifetime,in CCO,0.24 ns
same,fluorescence lifetime,in CCOC(C)=O,0.69 ns
same,fluorescence lifetime,in CCOCC,0.76 ns
same,fluorescence lifetime,in CN(C)C=O,0.67 ns
same,fluorescence lifetime,in CO,0.21 ns
same,fluorescence lifetime,in CS(C)=O,0.58 ns
same,fluorescence lifetime,in Cc1ccccc1,0.86 ns
same,fluorescence lifetime,in ClC(Cl)(Cl)Cl,0.76 ns
same,fluorescence lifetime,in ClCCl,1.08 ns
same,fluorescence lifetime,in OCC(F)(F)F,0.14 ns
same,fluorescence lifetime,in S=C=S,0.83 ns
same,fluorescence lifetime,in c1ccccc1,0.81 ns
same,fluorescence lifetime,in c1ccncc1,1.17 ns
Fc1nc(F)c(F)c(C#Cc2cc3c(cc2C#Cc2c(F)c(F)nc(F)c2F)OC2(CCCCC2)O3)c1F,fluorescence lifetime,in CC#N,5.3 ns
